pIC50, pKi: −log10 of the molar value.
Experiments:
PI3Kα = PI3Kα (Homo sapiens (Human), UniProt P42336); conditions: read-out: PI3Kα AlphaScreen ® Ki
[1] = molecular target: human mutant B-raf (HuBraf V600E) (Homo sapiens (Human), UniProt P15056, V600E); conditions: at 10 μM compound concentration; POC = 100 − percent inhibition
[2] = tested on: phosphorylation of Akt at Serine 473 in U87 MG cells; test: cells; conditions: Homo sapiens, U-87 MG, 2 h, read-out: U87Cell IC50, pAkt (Ser 473), U87 MG cells, two hours with compound
Protocol: pAkt Aplhascreen (U87 Cell)
This assay was performed using U87 MG cells. […] The cells were maintained weekly using 0.05% Trypsin (Gibco) and replated in 150 mm TC—Treated Culture Dishes (Corning, Corning, N.Y.).
The first day of the assay, the adherent cells were trypsinized, media was added to the loose cells and cells were mixed to a homogenous mixture. 0.5 ml of the homogenous mixture was counted on the Beckman Coulter® Vi-CELL™ XR (Fullerton, Calif.). 50 frames of cells were counted and the number of viable cells was determined. The cells were then diluted to 0.25 million cells per ml, and centrifuged at 200 rcf for 5 minutes. The media was removed and the cells were reconstituted in fresh media for plating. The cells were plated at 20 μl per well on the PerkinElmer® FlexDrop PLUS in Low Volume 384 Well White Tissue Culture Plates (Corning) with a final cell density of 5K cells per well. The plates were incubated overnight at 37° Celsius, 5% CO2.
After two hours, the media in the cell plates was aspirated using the BioTek® ELx405HT plate washer (Winooski, Vt.) removing the majority of media and compound without disturbing the adherent U87 cells. […] The plates were then incubated at room temperature on a shaker for ten minutes. […] The AlphaScreen® reaction was added to the cell lysate at 6 μl per well using the PerkinElmer® FlexDrop PLUS. The plates were placed in a humid environment to reduce edge effects and incubated overnight at room temperature with restricted air flow in the dark.

human mutant B-raf (HuBraf V600E), sequence (P15056 whole entry V600E): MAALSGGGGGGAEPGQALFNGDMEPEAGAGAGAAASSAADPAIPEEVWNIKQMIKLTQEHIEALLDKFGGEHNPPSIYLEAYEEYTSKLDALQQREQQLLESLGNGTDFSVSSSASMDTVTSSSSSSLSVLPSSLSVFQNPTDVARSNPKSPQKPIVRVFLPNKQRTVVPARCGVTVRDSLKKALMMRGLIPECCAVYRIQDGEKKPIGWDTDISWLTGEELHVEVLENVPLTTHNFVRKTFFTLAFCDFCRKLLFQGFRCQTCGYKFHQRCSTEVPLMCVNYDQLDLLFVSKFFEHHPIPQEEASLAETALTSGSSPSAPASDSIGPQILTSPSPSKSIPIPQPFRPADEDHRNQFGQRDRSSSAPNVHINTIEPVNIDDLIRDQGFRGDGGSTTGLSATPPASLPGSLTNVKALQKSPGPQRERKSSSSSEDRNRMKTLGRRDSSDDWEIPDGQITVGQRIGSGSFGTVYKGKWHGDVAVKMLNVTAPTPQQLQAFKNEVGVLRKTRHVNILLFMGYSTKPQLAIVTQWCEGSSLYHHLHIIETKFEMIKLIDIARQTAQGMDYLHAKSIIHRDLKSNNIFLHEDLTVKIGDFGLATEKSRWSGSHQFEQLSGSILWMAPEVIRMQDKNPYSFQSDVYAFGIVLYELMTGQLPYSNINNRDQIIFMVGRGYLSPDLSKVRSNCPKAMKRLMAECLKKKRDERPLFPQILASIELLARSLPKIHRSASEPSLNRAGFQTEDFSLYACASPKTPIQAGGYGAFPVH
PI3Kα, sequence (P42336 whole entry): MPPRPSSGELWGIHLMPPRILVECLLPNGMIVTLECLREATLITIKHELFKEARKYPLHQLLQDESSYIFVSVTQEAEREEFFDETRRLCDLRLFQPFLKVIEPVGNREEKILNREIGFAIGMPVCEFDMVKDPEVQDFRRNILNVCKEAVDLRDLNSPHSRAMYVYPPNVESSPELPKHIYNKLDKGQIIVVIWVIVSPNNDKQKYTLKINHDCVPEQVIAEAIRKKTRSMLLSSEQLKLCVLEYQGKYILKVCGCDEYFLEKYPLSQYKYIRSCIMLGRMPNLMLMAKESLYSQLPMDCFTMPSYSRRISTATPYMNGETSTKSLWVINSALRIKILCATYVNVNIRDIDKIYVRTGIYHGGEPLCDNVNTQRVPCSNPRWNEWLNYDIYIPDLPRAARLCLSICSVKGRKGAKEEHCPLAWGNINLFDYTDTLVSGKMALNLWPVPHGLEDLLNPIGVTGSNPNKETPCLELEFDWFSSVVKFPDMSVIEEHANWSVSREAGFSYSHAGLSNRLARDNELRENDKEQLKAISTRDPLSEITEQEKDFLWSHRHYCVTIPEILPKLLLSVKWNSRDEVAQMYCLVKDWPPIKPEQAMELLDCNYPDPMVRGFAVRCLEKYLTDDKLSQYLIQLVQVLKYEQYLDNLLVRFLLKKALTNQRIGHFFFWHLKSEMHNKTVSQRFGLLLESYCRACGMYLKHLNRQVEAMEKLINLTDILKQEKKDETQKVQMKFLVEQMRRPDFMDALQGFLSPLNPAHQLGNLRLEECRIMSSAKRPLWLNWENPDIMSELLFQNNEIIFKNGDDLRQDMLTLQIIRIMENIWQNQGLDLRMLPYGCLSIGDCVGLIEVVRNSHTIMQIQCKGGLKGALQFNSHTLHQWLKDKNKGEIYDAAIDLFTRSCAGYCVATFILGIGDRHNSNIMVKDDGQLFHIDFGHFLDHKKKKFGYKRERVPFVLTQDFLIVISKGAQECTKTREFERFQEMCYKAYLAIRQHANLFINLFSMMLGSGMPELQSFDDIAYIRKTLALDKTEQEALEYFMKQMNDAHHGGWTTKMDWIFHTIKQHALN
PI3Kα, sequence (P27986 whole entry partner): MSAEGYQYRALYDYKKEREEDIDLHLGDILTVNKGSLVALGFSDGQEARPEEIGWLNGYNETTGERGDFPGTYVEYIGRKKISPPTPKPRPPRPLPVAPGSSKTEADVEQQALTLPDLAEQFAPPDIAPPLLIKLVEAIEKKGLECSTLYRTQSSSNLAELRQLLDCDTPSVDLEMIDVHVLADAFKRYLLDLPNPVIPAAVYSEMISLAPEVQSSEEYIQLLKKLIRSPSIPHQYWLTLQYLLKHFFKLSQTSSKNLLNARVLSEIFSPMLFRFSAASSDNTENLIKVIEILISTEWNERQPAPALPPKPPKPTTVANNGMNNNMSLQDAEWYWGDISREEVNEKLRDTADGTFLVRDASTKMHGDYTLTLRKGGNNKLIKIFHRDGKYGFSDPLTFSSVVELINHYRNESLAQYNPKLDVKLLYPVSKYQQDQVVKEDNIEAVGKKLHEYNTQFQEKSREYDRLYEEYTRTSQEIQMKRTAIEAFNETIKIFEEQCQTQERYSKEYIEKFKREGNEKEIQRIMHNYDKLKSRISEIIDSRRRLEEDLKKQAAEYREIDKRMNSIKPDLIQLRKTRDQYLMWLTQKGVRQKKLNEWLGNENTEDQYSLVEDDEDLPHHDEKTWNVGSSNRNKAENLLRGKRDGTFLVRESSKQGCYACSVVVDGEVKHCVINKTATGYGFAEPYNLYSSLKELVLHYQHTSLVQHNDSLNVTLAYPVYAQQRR

Cc1cnc(Nc2cccnc2)c(-c2nc(C)nc(N)n2)c1 [Example 32, Methyl-6-(5-Methyl-2-(Pyridin-3-Ylamino)Pyridin-3-yl)-1,3,5-Triazin-2-Amine]
pKi (PI3Kα): 6.72 | Mutant B-raf HTRF Assay POC Mean n = 2 [1]: 107% of Control (POC) | pIC50 [2]: 6.23

CC(=O)Nc1ccc(Nc2ncccc2-c2ncnc3[nH]cnc23)cn1 [Example 16, N-(5-(3-(9H-Purin-6-yl)Pyridin-2-Ylamino)Pyridin-2-yl)Acetamide]
pKi (PI3Kα): < 5.82 | Mutant B-raf HTRF Assay POC Mean n = 2 [1]: 42% of Control (POC)

COc1ncc(Nc2ncccc2-c2nc(C)nc3[nH]cnc23)cn1 [Example 66, 2-Methoxy-N-(3-(2-Methyl-9H-Purin-6-yl)Pyridin-2-yl)Pyrimidin-5-Amine]
pKi (PI3Kα): 7.21 | Mutant B-raf HTRF Assay POC Mean n = 2 [1]: 103% of Control (POC) | pIC50 [2]: 6.76

C=Cc1cnc(Nc2ccc(OC)nc2)c(-c2nc(C)nc3[nH]cnc23)c1 [Example 73, N-(6-methoxypyridin-3-yl)-3-(2-methyl-9H-purin-6-yl)-5-vinylpyridin-2-amine]
Mutant B-raf HTRF Assay POC Mean n = 2 [1]: 108% of Control (POC) | pIC50 [2]: 6.26

Cc1nc(N)cc(-c2cccnc2Nc2cccc(O)c2)n1 [Example 26, 3-(3-(6-Amino-2-Methylpyrimidin-4-yl)Pyridin-2-Ylamino)Phenol]
pKi (PI3Kα): 7.62 | Mutant B-raf HTRF Assay POC Mean n = 2 [1]: 84% of Control (POC)

COc1ccc(Nc2ncc(C)cc2-c2nc(C)nc(N)n2)cn1 [Example 31, 4-(2-(6-Methoxypyridin-3-Ylamino)-5-Methylpyridin-3-yl)-6-Methyl-1,3,5-Triazin-2-Amine]
Mutant B-raf HTRF Assay POC Mean n = 2 [1]: 97% of Control (POC)

Cc1nc(-c2cc(C(F)(F)F)cnc2Nc2cccc3[nH]ncc23)c2nc[nH]c2n1 [Example 65, N-(3-(2-Methyl-9H-Purin-6-yl)-5-(Trifluoromethyl)Pyridine-2-yl)-1H-Indazol-4-Amine]
pKi (PI3Kα): 6.92 | Mutant B-raf HTRF Assay POC Mean n = 2 [1]: 85% of Control (POC)

Cc1nc(-c2cccnc2Nc2cccc3[nH]ncc23)c2cn[nH]c2n1 [Example 55, N-(3-(6-methyl-1H-pyrazolo[3,4-d]pyrimidin-4-yl)pyridin-2-yl)-1H-indazol-4-amine]
pKi (PI3Kα): 5.85 | Mutant B-raf HTRF Assay POC Mean n = 2 [1]: 103% of Control (POC)

Nc1ccc(Nc2ncccc2-c2ncnc3[nH]cnc23)cn1 [Example 17, N3-(3-(9H-Purin-6-yl)Pyridin-2-yl)Pyridine-3,6-Diamine]
pKi (PI3Kα): < 5.82 | Mutant B-raf HTRF Assay POC Mean n = 2 [1]: 38% of Control (POC)

Cc1nc(N)nc(-c2cccnc2Nc2cccc3[nH]ncc23)n1 [Example 24, N-(3-(4-Amino-6-Methyl-1,3,5-Triazin-2-yl)Pyridin-2-yl)-1H-Indazol-4-Amine]
Mutant B-raf HTRF Assay POC Mean n = 2 [1]: 94% of Control (POC)

COc1ccc(Nc2ncc(CN3CCN(S(C)(=O)=O)CC3)cc2-c2nc(C)nc(N)n2)cn1 [Example 35, 4-(2-(6-methoxypyridin-3-ylamino)-5-((4-(methylsulfonyl)piperazin-1-yl)methyl)pyridin-3-yl)-6-methyl-1,3,5-triazin-2-amine]
Mutant B-raf HTRF Assay POC Mean n = 2 [1]: 98% of Control (POC)

COc1ccc(Nc2ncc(CN3CCNCC3)cc2-c2nc(C)nc(N)n2)cn1 [Example 41, 4-(2-(6-methoxypyridin-3-ylamino)-5-(piperazin-1-ylmethyl)pyridin-3-yl)-6-methyl-1,3,5-triazin-2-amine]
Mutant B-raf HTRF Assay POC Mean n = 2 [1]: 96% of Control (POC)

COc1ccc(Nc2ncc(CN3CCOCC3)cc2-c2nc(C)nc(N)n2)cn1 [Example 44, 4-(2-(6-methoxypyridin-3-ylamino)-5-(morpholinomethyl)pyridin-3-yl)-6-methyl-1,3,5-triazin-2-amine]
Mutant B-raf HTRF Assay POC Mean n = 2 [1]: 94% of Control (POC)

Cc1nc(N)cc(-c2cnccc2Nc2cccc3[nH]ccc23)n1 [Example 109, N-(3-(6-amino-2-methylpyrimidin-4-yl)pyridin-4-yl)-1H-indol-4-amine]
Mutant B-raf HTRF Assay POC Mean n = 2 [1]: 35% of Control (POC) | pIC50 [2]: 6.09
